In patent US12054447B2, “PCNA inhibitors” (City of Hope, priority 2015, dated 2024) one finds IC50 data, which are given here for 13 molecules.

A word on the pIC50: it is the IC50 on a negative log10 scale, so that one unit is a factor of ten.

Assay [1] concerns neuroblastoma cell lines. Nature of the assay: IC50 in Table 3, cell line not stated. It counts as cell-based. To be noted: Homo sapiens. The text has this: In addition numerous analogs related to AOH1160 were screened in numerous neuroblastoma cell lines for anti-cancer activity (Table 2). AOH1160 was screened for anti-cancer activity in additional cancer cell lines besides neuroblastoma (Table 3).

Assay [2] has as its system SK-N-AS. Put plainly: Cell growth, CellTitor-Glo assay, 72 h. The class given is cell-based. As to conditions: Homo sapiens. The method, then: (§1) The human NB cell lines, SK-N-DZ, SK-N-BE(2)c, SK-N-AS, and LAN-5 obtained from the American Type Culture Collection (Rockville, MD), were cultured in DMEM with 10% fetal bovine serum (FBS), 100 units/ml penicillin, and 100 μg/ml streptomycin in the presence of 5% CO2 at 37° C. Human PBMCs from a healthy donor were purchased from Sanguine BioSciences (Valencia, CA) and grown in RPMI1640 with 10% FBS, 100 units/ml penicillin, 100 μg/ml streptomycin, and 10 ng/ml IL-2 in the presence of 5% CO2 at 37° C. Human embryonic progenitor cell line 7SM0032 was acquired from Millipore (Billerica, MA) and grown in the hEPM-1 Media Kit purchased from the same company. The plasmid pCBASce expresses the rare cutting I-SceI meganuclease. The U20S-derived cell lines, DR-GFP and EJ5-GFP, each contain a stably transfected reporter gene for DSB repair mediated by HR and end joining (EJ), respectively. These cell lines were cultured in DMEM medium with 10% FBS at 37° C. in the presence of 5% CO2.
(§2) To measure the effect of the compounds on cell growth, cells were seeded at 3×10^4/ml into a 96-well plate. Once attached, cells were treated with various concentrations of AOH1160 for 72 h. Cell growth was measured by the CellTitor-Glo assay (Promega, Madison, WI) according to the manufacturer's instructions. To measure apoptosis, cells were seeded at 1×10^5/ml onto a chamber slide. Once attached, cells were treated with the 500 nM AOH1160 for 24 h. Cells were fixed and analyzed by a TUNEL assay using the TMR red in situ cell death detection kit (Roche Diagnostics, Indianapolis, IN).

Assay [3] deals with NB cell lines. Nature of the assay: Cell viability assay on NB cell lines. The class given is cell-based, human. To be noted: Homo sapiens; multiple NB cell lines; read-out: IC50 range over NB cell lines. The procedure: as §2
To identify small molecule compounds that target the PCNA and FEN1 interface, we started with known crystal structures of the PCNA/FEN1 complex that are available from the RCSB protein database. To improve the likelihood of identifying novel small molecules that specifically target caPCNA, we focused our virtual screen on the binding pocket in PCNA delineated by residues L126 and Y133 and screened databases consisting of more than 6.8 million chemical structures available at the AMRI. A set of 57 compounds identified by the virtual screen was acquired and further tested in a cell viability assay. A compound (AOH39) was selected for further development due to its anti-cancer activity and selectivity.

Assay [4] relates to PBMC. Put plainly: Cell growth, CellTitor-Glo assay, 72 h. The class given is cell-based, human. The procedure: as §1, §2
Assay [5] relates to 7SM0032. Nature of the assay: Cell growth, CellTitor-Glo assay, 72 h. To be noted: human neural crest stem cells (7SM0032). The class given is cell-based, human. The method, then: as §1, §2
Assay [6] has as its system SK-N-DZ. Nature of the assay: Cell growth, CellTitor-Glo assay, 72 h. It counts as cell-based. As to conditions: Homo sapiens. The method, then:
as §1, §2

Assay [7] deals with SK-N-BE(2)c. Nature of the assay: Cell growth, CellTitor-Glo assay, 72 h. It counts as cell-based. As to conditions: Homo sapiens. The method, then:
as §1, §2

Molecules are shown by their SMILES. pIC50: −log10 of the molar value.

As for `O=C(CNC(=O)c1cccc2ccccc12)Nc1cccc(Oc2ccncc2)c1` [#1161], the pIC50 in assay [1] and in assay [2] was 4.67 throughout.

Regarding `O=C(CNC(=O)c1cccc2ccccc12)Nc1ccccc1Oc1ccncc1` [#1162], the pIC50 in assay [1] and in assay [2] was less than 4.30 throughout.

On to `O=C(CNC(=O)c1nccc2ccccc12)Nc1ccccc1Oc1ccccc1` [#1165], for which the pIC50 in assay [1] and in assay [2] was 4.46 throughout.

In the case of `O=C(CNC(=O)c1nccc2ccccc12)Nc1cccc(Oc2ccncc2)c1` [#1166], the values for the pIC50 in assay [1] and in assay [2] were 4.47 and less than 4.52, respectively.

Molecule `O=C(CNC(=O)c1nccc2ccccc12)Nc1ccccc1Oc1ccncc1` [#1167] had a pIC50 in assay [1] of 5.38.

As to `O=C(CNC(=O)c1cncc2ccccc12)Nc1ccccc1Oc1ccccc1` [#1175], the negative logarithm of the IC50 (pIC50) in assay [1] and in assay [2] was less than 4.52 each time.

In turn, `O=C(CNC(=O)c1cncc2ccccc12)Nc1cccc(Oc2ccncc2)c1` [#1176] showed a pIC50 in assay [2] of less than 4.52.

In assay [1], `O=C(CNC(=O)c1cncc2ccccc12)Nc1ccccc1Oc1ccncc1` [#1177] gave a pIC50 of less than 4.52.

For `O=C(CNC(=O)c1cccc2ccccc12)Nc1ccc(Oc2ccncc2)cc1` [#1178], the pIC50 in assay [1] and in assay [2] was 5.96 in each case.

For the molecule `O=C(CNC(=O)c1cccc2ccccc12)Nc1ccccc1Cc1ccccc1` [AOH39, N-(2-((2-benzylphenyl)amino)-2-oxoethyl)-1-naphthamide, reference compound], the pIC50 in assay [3] was 5.55 to 5.89; in assay [4] (human peripheral blood mononuclear cells (PBMC)), 4.81; in assay [5], approximately 4.00.

`O=C(CNC(=O)c1nccc2ccccc12)Nc1ccc(Oc2ccncc2)cc1` [AOH1179]: the pIC50 in assay [1] and in assay [2] was less than 4.52 throughout.

With `O=C(CNC(=O)c1cncc2ccccc12)Nc1ccc(Oc2ccncc2)cc1` [AOH1180], the pIC50 in assay [1] and in assay [2] was less than 4.52 throughout.

As to `O=C(CNC(=O)c1cccc2ccccc12)Nc1ccc(Cl)cc1Oc1ccccc1` [PCNA4], the pIC50 is 6.73 in assay [2]; 6.35 in assay [6]; 6.30 in assay [7]; less than 4.70 in assay [4] (Homo sapiens, PBMC (non-malignant)).
